Laboratory results published in paper PMC3914206.

What was measured:
panel of 442 kinases [1] = biological target: T1, panel of 442 kinases (Homo sapiens, UniProt P11309); assay type: binding; settings: Compound Concentration 10 µM
T1 construct: purchased KINOMEscan
From the text: (§1) We assessed the selectivity of members of this scaffold using the KINOMEscan methodology across a near comprehensive panel of 442 kinases [[18,27]].

panel of 442 kinases [2] = biological target: T2, panel of 442 kinases (Homo sapiens, UniProt P42681); assay type: binding; settings: kinase TXK; compound concentration 10 µM
T2 construct: purchased KINOMEscan
T2 sequence (P42681 1-527): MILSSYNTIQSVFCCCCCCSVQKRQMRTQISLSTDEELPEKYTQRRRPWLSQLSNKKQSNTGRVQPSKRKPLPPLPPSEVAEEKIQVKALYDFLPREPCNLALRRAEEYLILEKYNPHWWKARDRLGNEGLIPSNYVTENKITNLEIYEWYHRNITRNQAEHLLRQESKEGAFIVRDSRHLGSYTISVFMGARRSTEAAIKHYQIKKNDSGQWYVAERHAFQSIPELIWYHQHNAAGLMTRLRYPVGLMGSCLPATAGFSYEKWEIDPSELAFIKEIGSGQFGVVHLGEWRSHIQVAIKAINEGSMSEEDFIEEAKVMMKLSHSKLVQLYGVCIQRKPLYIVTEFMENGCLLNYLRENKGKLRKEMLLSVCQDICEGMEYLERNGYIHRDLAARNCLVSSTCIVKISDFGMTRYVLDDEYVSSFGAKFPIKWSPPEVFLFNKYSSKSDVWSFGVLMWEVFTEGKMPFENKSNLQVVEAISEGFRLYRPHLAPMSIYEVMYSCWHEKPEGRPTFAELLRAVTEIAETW
From the text: as §1

T1 sequence (P11309 whole entry): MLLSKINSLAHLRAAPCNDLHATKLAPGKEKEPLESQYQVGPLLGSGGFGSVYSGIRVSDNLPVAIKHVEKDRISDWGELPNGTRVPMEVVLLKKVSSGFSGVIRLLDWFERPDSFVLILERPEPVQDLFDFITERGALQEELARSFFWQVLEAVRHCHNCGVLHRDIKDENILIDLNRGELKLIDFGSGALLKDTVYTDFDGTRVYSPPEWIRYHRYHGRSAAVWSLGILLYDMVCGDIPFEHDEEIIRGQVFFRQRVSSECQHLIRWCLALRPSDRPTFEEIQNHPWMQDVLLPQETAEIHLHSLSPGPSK

## CCOc1cc(C(=O)N2CCC(N3CCN(C)CC3)CC2)ccc1Nc1ncc2c(n1)N(C1CCCC1)c1ccccc1C(=O)N2C [Compound 26]
Panel of 442 kinases [1]
  KINOMEscan: PIM1: 100
Panel of 442 kinases [2]
  % Ctrl, TXK: 100 % Ctrl

## COc1cc(C(=O)N2CCC(N3CCN(C)CC3)CC2)ccc1Nc1ncc2c(n1)N(C1CCCC1)c1ccccc1C(=O)N2C [Compound 25, 11-cyclopentyl-2-((2-methoxy-4-(4-(4-methylpiperazin-1-yl)piperidine-1-carbonyl)phenyl)amino)-5-methyl-5H-benzo[e]pyrimido[5,4-b][1,4]diazepin-6(11H)-one]
Panel of 442 kinases [1]
  KINOMEscan: PIM1: 97
Panel of 442 kinases [2]
  % Ctrl, TXK: 95 % Ctrl

## COc1cc(C(=O)N2CCC(N3CCN(C)CC3)CC2)ccc1Nc1ncc2c(n1)N1CCc3cccc(c31)C(=O)N2C [Compound 24]
Panel of 442 kinases [2]
  % Ctrl, TXK: 93 % Ctrl

## COc1cc(C(=O)N2CCC(N3CCN(C)CC3)CC2)ccc1Nc1ncc2c(n1)N(C)c1ccccc1C(=O)N2C [15 (LRRK2-IN-1)]
Panel of 442 kinases [1]
  KINOMEscan: PIM1: 100
Panel of 442 kinases [2]
  % Ctrl, TXK: 91 % Ctrl
